In the supplement of paper PMC10307832:

Experiments:
Experiment in all cases: relative viability (nuclei count vs DMSO), 5 days (fraction); higher = more cells survive
[1] = test system: BEN
Outline: (§1)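 For relative viability, nuclei counts in treated wells were divided by those in vehicle wells. Lung cancer cell lines had been pin-tool dosed in 1536-well plates the day after seeding and cultured for 5 days, then fixed and stained in one step (final 0.05% Triton X-100, 1% formaldehyde, 1 ug/ml Hoechst) and imaged at 4×. Doses were one drug alone or a fixed anchor-drug dose plus five library-drug doses (not always all listed) in √10 steps, and values are duplicate-plate medians.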

[2] = test system: CAL-12T
Outline: as §1

[3] = test system: COR-L23
Outline: as §1

[4] = test system: HCC-44
Outline: as §1

[5] = test system: LU99A
Outline: as §1

[6] = test system: LXF-289
Outline: as §1

[7] = test system: NCI-H1355
Outline: as §1

[8] = test system: NCI-H1437
Outline: as §1

[9] = test system: NCI-H1650
Outline: as §1

[10] = test system: NCI-H1651
Outline: as §1

[11] = test system: NCI-H1666
Outline: as §1

[12] = test system: NCI-H1755
Outline: as §1

[13] = test system: NCI-H1792
Outline: as §1

[14] = test system: NCI-H1993
Outline: as §1

[15] = test system: NCI-H2085
Outline: as §1

[16] = test system: NCI-H2087
Outline: as §1

[17] = test system: NCI-H2170
Outline: as §1

[18] = test system: NCI-H460
Outline: as §1

[19] = test system: NCI-H520
Outline: as §1

[20] = test system: PC-14
Outline: as §1

[21] = test system: SK-MES-1
Outline: as §1

**Q.** What does the source list for CCNC(=O)c1noc(-c2cc(C(C)C)c(O)cc2O)c1-c1ccc(CN2CCOCC2)cc1 [Luminespib] + CC(=O)c1c(C)c2cnc(Nc3ccc(N4CCNCC4)cn3)nc2n(C2CCCC2)c1=O [Palbociclib] (partner 0.5 µM)?
**A.** relative viability ([1]; first compound 0.002 µM): 0.472; relative viability ([1]; first compound 0.006325 µM): 0.468; relative viability ([1]; first compound 0.02 µM): 0.438; relative viability ([1]; first compound 0.06325 µM): 0.409; relative viability ([1]; first compound 0.2 µM): 0.323; relative viability ([2]; first compound 0.002 µM): 0.601; relative viability ([2]; first compound 0.006325 µM): 0.467; relative viability ([2]; first compound 0.02 µM): 0.161; relative viability ([2]; first compound 0.06325 µM): 0.11; relative viability ([2]; first compound 0.2 µM): 0.0956; relative viability ([3]; first compound 0.002 µM): 0.343; relative viability ([3]; first compound 0.006325 µM): 0.274; relative viability ([3]; first compound 0.02 µM): 0.26; relative viability ([3]; first compound 0.06325 µM): 0.0657; relative viability ([3]; first compound 0.2 µM): 0.071; relative viability ([4]; first compound 0.002 µM): 0.942; relative viability ([4]; first compound 0.006325 µM): 0.998; relative viability ([4]; first compound 0.02 µM): 1.09; relative viability ([4]; first compound 0.06325 µM): 0.986; relative viability ([4]; first compound 0.2 µM): 0.858; relative viability ([5]; first compound 0.002 µM): 0.369; relative viability ([5]; first compound 0.006325 µM): 0.379; relative viability ([5]; first compound 0.02 µM): 0.272; relative viability ([5]; first compound 0.06325 µM): 0.428; relative viability ([5]; first compound 0.2 µM): 0.417; relative viability ([6]; first compound 0.002 µM): 0.582; relative viability ([6]; first compound 0.006325 µM): 0.569; relative viability ([6]; first compound 0.02 µM): 0.601; relative viability ([6]; first compound 0.06325 µM): 0.574; relative viability ([6]; first compound 0.2 µM): 0.535; relative viability ([7]; first compound 0.002 µM): 0.415; relative viability ([7]; first compound 0.006325 µM): 0.383; relative viability ([7]; first compound 0.02 µM): 0.257; relative viability ([7]; first compound 0.06325 µM): 0.367; relative viability ([7]; first compound 0.2 µM): 0.222; relative viability ([8]; first compound 0.002 µM): 0.34; relative viability ([8]; first compound 0.006325 µM): 0.306; relative viability ([8]; first compound 0.02 µM): 0.309; relative viability ([8]; first compound 0.06325 µM): 0.273; relative viability ([8]; first compound 0.2 µM): 0.22; relative viability ([9]; first compound 0.002 µM): 0.305; relative viability ([9]; first compound 0.006325 µM): 0.302; relative viability ([9]; first compound 0.02 µM): 0.168; relative viability ([9]; first compound 0.06325 µM): 0.106; relative viability ([9]; first compound 0.2 µM): 0.127; relative viability ([10]; first compound 0.002 µM): 0.544; relative viability ([10]; first compound 0.006325 µM): 0.521; relative viability ([10]; first compound 0.02 µM): 0.408; relative viability ([10]; first compound 0.06325 µM): 0.423; relative viability ([10]; first compound 0.2 µM): 0.332; relative viability ([11]; first compound 0.002 µM): 0.647; relative viability ([11]; first compound 0.006325 µM): 0.67; relative viability ([11]; first compound 0.02 µM): 0.673; relative viability ([11]; first compound 0.06325 µM): 0.705; relative viability ([11]; first compound 0.2 µM): 0.655; relative viability ([12]; first compound 0.002 µM): 0.51; relative viability ([12]; first compound 0.006325 µM): 0.474; relative viability ([12]; first compound 0.02 µM): 0.44; relative viability ([12]; first compound 0.06325 µM): 0.462; relative viability ([12]; first compound 0.2 µM): 0.373; relative viability ([13]; first compound 0.002 µM): 0.691; relative viability ([13]; first compound 0.006325 µM): 0.655; relative viability ([13]; first compound 0.02 µM): 0.622; relative viability ([13]; first compound 0.06325 µM): 0.316; relative viability ([13]; first compound 0.2 µM): 0.278; relative viability ([14]; first compound 0.002 µM): 0.714; relative viability ([14]; first compound 0.006325 µM): 0.611; relative viability ([14]; first compound 0.02 µM): 0.473; relative viability ([14]; first compound 0.06325 µM): 0.716; relative viability ([14]; first compound 0.2 µM): 0.413; relative viability ([15]; first compound 0.002 µM): 0.447; relative viability ([15]; first compound 0.006325 µM): 0.434; relative viability ([15]; first compound 0.02 µM): 0.453; relative viability ([15]; first compound 0.06325 µM): 0.388; relative viability ([15]; first compound 0.2 µM): 0.263; relative viability ([16]; first compound 0.002 µM): 0.205; relative viability ([16]; first compound 0.006325 µM): 0.232; relative viability ([16]; first compound 0.02 µM): 0.185; relative viability ([16]; first compound 0.06325 µM): 0.11; relative viability ([16]; first compound 0.2 µM): 0.114; relative viability ([17]; first compound 0.002 µM): 0.41; relative viability ([17]; first compound 0.006325 µM): 0.383; relative viability ([17]; first compound 0.06325 µM): 0.376; relative viability ([17]; first compound 0.2 µM): 0.315; relative viability ([18]; first compound 0.002 µM): 0.288; relative viability ([18]; first compound 0.006325 µM): 0.126; relative viability ([18]; first compound 0.02 µM): 0.0359; relative viability ([18]; first compound 0.06325 µM): 0.0096; relative viability ([18]; first compound 0.2 µM): 0.0106; relative viability ([19]; first compound 0.002 µM): 0.301; relative viability ([19]; first compound 0.006325 µM): 0.213; relative viability ([19]; first compound 0.02 µM): 0.176; relative viability ([19]; first compound 0.06325 µM): 0.121; relative viability ([19]; first compound 0.2 µM): 0.135; relative viability ([20]; first compound 0.002 µM): 0.541; relative viability ([20]; first compound 0.006325 µM): 0.367; relative viability ([20]; first compound 0.02 µM): 0.315; relative viability ([20]; first compound 0.06325 µM): 0.0535; relative viability ([20]; first compound 0.2 µM): 0.0542; relative viability ([21]; first compound 0.002 µM): 0.296; relative viability ([21]; first compound 0.006325 µM): 0.335; relative viability ([21]; first compound 0.02 µM): 0.368; relative viability ([21]; first compound 0.06325 µM): 0.151; relative viability ([21]; first compound 0.2 µM): 0.172
